# Reference: patent US11420935B2, “Bicyclic compounds” (Vivace Therapeutics, Inc., priority 2019, dated 2022)
# Test system: 8×TBD luciferase reporter (YAP) in HEK293T cells
# Experiment: YAP Reporter Assay (8×TBD firefly luciferase reporter)
# Type: cell-based
# Conditions: Homo sapiens, HEK-293T; HEK293T cells stably transfected with 8×TBD luciferase reporter and pRLTK; 24-hr incubation; firefly luciferase activity; read-out: Firefly Luciferase IC50
# Procedure, shortened: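 Stably transfected HEK293T cells (8×TBD firefly luciferase plus TK-renilla) were dosed with 10-point 1:3 dilutions from 3 μM final, quadruplicates, for 24 h at 37 °C. Dual-Glo read firefly and renilla luminescence; IC50 and maximal inhibition reported separately for each.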
row,SMILES,IC50
1,"C[C@H](NC(=O)c1ccc2c(Oc3ccc(C(F)(F)F)cc3)cccc2c1)C1CN(C2CC2)C1 [Compound 136, (S)—N-(1-(1-cyclopropylazetidin-3-yl)ethyl)-5-(4-(trifluoromethyl)phenoxy)-2-naphthamide]",1 to 3 µM
2,"C[C@@H](NC(=O)c1ccc2c(Oc3ccc(C(F)(F)F)cc3)cccc2c1)C1CN(C2CC2)C1 [Compound 137, (R)—N-(1-(1-cyclopropylazetidin-3-yl)ethyl)-5-(4-(trifluoromethyl)phenoxy)-2-naphthamide]",< 0.1 µM
3,"C[C@H](NC(=O)c1ccc2c(Oc3ccc(C(F)(F)F)cc3)cccc2c1)C1(O)CNC1 [Compound 138, (S)—N-(1-(3-hydroxyazetidin-3-yl)ethyl)-5-(4-(trifluoromethyl)phenoxy)-2-naphthamide]",0.1 to 1 µM
4,"C[C@@H](NC(=O)c1ccc2c(Oc3ccc(C(F)(F)F)cc3)cccc2c1)C1(O)CNC1 [Compound 139, (R)—N-(1-(3-hydroxyazetidin-3-yl)ethyl)-5-(4-(trifluoromethyl)phenoxy)-2-naphthamide]",< 0.1 µM
5,"O=C(N[C@@H](CO)C1CNC1)c1ccc2c(Oc3ccc(C(F)(F)F)cc3)cccc2c1 [Compound 140, (R)—N-(1-(azetidin-3-yl)-2-hydroxyethyl)-5-(4-(trifluoromethyl)phenoxy)-2-naphthamide]",1 to 3 µM
6,"O=C(N[C@H](CO)C1CNC1)c1ccc2c(Oc3ccc(C(F)(F)F)cc3)cccc2c1 [Compound 142, (S)—N-(1-(azetidin-3-yl)-2-hydroxyethyl)-5-(4-(trifluoromethyl)phenoxy)-2-naphthamide]",0.1 to 1 µM
7,"C[C@H](CCN(C)C)NC(=O)c1ccc2c(Oc3ccc(C(F)(F)F)cc3)cccc2c1 [Compound 144, (R)-N-(4-(dimethylamino)butan-2-yl)-5-(4-(trifluoromethyl)phenoxy)-2-naphthamide]",< 0.1 µM
8,"CNCC[C@@H](C)NC(=O)c1ccc2c(Oc3ccc(C(F)(F)F)cc3)cccc2c1 [Compound 145, (R)-N-(4-(methylamino)butan-2-yl)-5-(4-(trifluoromethyl)phenoxy)-2-naphthamide]",< 0.1 µM
9,"CCNCC[C@@H](C)NC(=O)c1ccc2c(Oc3ccc(C(F)(F)F)cc3)cccc2c1 [Compound 146, (R)-N-(4-(ethylamino)butan-2-yl)-5-(4-(trifluoromethyl)phenoxy)-2-naphthamide]",< 0.1 µM
10,"C[C@H](CCNCCO)NC(=O)c1ccc2c(Oc3ccc(C(F)(F)F)cc3)cccc2c1 [Compound 147, (R)-N-(4-((2-hydroxyethyl)amino)butan-2-yl)-5-(4-(trifluoromethyl)phenoxy)-2-naphthamide]",< 0.1 µM
11,"C[C@H](CCNCCF)NC(=O)c1ccc2c(Oc3ccc(C(F)(F)F)cc3)cccc2c1 [Compound 148, (R)-N-(4-((2-fluoroethyl)amino)butan-2-yl)-5-(4-(trifluoromethyl)phenoxy)-2-naphthamide]",< 0.1 µM
12,"C[C@H](CCNCC(F)F)NC(=O)c1ccc2c(Oc3ccc(C(F)(F)F)cc3)cccc2c1 [Compound 149, (R)-N-(4-((2,2-difluoroethyl)amino)butan-2-yl)-5-(4-(trifluoromethyl)phenoxy)-2-naphthamide]",< 0.1 µM
13,"C[C@@H](NC(=O)c1ccc2c(Oc3ccc(C(F)(F)F)cc3)cccc2c1)C1CCNCC1 [Compound 150, (R)-N-(1-(piperidin-4-yl)ethyl)-5-(4-(trifluoromethyl)phenoxy)-2-naphthamide]",< 0.1 µM
14,"C[C@H](NC(=O)c1ccc2c(Oc3ccc(C(F)(F)F)cc3)cccc2c1)C1(F)CNC1 [Compound 151, (S)-N-(1-(3-fluoroazetidin-3-yl)ethyl)-5-(4-(trifluoromethyl)phenoxy)-2-naphthamide]",1 to 3 µM
15,"C[C@@H](NC(=O)c1ccc2c(Oc3ccc(C(F)(F)F)cc3)cccc2c1)C1(F)CNC1 [Compound 152, (R)-N-(1-(3-fluoroazetidin-3-yl)ethyl)-5-(4-(trifluoromethyl)phenoxy)-2-naphthamide]",0.1 to 1 µM
